Columns and labels:
[1] = species on record: Homo sapiens; test: Percentage PHK activity remaining in the presence of 2uM inhibitor
[2] = target: Ribosomal protein S6 kinase beta-1 (Homo sapiens, UniProt P23443); test: Percentage S6K1 activity remaining in the presence of 2uM inhibitor
[3] = target: Casein kinase II (Homo sapiens) (UniProt P67870+P68400+P19784); test: Percentage CK2 activity remaining in the presence of 2uM inhibitor; type: protein-complex assay
[4] = target: T1, Dual specificity tyrosine-phosphorylation-regulated kinase 3 (Homo sapiens) (UniProt O43781); test: Percentage DYRK3 activity remaining in the presence of 2uM inhibitor
T1 sequence (whole entry): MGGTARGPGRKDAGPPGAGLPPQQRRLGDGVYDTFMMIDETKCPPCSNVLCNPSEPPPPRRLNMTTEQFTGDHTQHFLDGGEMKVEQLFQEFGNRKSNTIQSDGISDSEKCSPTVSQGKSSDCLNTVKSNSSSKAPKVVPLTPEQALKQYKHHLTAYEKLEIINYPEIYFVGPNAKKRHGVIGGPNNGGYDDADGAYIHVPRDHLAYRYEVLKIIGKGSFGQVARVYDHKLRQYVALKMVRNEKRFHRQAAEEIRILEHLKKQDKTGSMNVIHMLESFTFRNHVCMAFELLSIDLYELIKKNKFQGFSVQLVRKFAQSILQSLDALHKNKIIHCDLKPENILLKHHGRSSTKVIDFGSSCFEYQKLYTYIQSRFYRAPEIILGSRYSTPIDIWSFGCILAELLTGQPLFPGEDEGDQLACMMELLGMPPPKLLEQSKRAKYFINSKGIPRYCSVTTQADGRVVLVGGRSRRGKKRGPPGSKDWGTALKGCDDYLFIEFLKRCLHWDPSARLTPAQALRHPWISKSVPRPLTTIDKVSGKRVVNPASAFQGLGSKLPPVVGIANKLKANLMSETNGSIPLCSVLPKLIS

[5] = target: T2, Serine/threonine-protein kinase 3 (Homo sapiens) (UniProt Q13188); test: Percentage MST2 activity remaining in the presence of 2uM inhibitor; details: filed as antagonist
T2 sequence (whole entry): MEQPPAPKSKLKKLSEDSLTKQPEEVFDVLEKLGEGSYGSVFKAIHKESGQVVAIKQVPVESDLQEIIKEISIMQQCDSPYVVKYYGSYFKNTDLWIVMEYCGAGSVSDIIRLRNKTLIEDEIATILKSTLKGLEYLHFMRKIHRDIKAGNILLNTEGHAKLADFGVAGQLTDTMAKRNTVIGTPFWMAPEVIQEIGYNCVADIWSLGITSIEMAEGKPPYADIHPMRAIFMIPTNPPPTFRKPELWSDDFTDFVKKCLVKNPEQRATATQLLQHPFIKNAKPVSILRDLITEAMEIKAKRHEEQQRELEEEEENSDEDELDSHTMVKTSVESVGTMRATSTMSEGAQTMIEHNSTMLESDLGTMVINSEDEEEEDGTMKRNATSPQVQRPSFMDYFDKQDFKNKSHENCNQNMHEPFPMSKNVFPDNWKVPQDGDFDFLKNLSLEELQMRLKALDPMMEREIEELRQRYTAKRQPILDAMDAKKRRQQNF

[6] = target: Calcium/calmodulin-dependent protein kinase kinase 2 (Homo sapiens) (UniProt Q96RR4); test: Percentage CaMKKbeta activity remaining in the presence of 2uM inhibitor
Calcium/calmodulin-dependent protein kinase kinase 2 (Homo sapiens), sequence (Q96RR4 2-588 limits assumed): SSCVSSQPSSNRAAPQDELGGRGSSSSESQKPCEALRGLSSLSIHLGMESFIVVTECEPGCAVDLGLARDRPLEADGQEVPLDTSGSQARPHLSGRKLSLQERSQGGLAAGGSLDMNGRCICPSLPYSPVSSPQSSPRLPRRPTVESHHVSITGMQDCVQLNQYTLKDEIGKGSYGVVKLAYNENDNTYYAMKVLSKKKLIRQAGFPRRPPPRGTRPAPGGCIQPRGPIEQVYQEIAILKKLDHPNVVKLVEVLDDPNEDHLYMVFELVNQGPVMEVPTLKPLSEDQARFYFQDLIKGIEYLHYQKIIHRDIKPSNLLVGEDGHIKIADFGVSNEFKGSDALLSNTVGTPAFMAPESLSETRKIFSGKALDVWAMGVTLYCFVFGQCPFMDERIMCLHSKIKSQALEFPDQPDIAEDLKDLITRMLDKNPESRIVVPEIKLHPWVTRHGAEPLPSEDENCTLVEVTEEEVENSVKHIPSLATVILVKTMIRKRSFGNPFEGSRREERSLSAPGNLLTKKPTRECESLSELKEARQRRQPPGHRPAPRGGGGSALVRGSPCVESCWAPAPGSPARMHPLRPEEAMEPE

[7] = target: Aurora kinase B (Homo sapiens, UniProt Q96GD4); test: Percentage Aurora B activity remaining in the presence of 2uM inhibitor
Aurora kinase B, sequence (Q96GD4 whole entry): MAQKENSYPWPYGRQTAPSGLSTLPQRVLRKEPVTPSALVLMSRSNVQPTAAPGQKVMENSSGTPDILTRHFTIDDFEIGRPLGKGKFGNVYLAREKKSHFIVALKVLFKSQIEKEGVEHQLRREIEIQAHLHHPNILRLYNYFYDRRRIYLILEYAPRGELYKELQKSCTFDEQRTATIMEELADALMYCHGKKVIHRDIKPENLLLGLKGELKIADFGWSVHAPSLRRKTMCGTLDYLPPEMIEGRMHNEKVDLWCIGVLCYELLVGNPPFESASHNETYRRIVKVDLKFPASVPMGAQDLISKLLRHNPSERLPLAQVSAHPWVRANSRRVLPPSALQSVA

[8] = target: T3, Inhibitor of nuclear factor kappa-B kinase subunit epsilon (Homo sapiens) (UniProt Q14164); test: Percentage IKKepsilon activity remaining in the presence of 0.01uM inhibitor; details: filed as antagonist
T3 sequence (whole entry): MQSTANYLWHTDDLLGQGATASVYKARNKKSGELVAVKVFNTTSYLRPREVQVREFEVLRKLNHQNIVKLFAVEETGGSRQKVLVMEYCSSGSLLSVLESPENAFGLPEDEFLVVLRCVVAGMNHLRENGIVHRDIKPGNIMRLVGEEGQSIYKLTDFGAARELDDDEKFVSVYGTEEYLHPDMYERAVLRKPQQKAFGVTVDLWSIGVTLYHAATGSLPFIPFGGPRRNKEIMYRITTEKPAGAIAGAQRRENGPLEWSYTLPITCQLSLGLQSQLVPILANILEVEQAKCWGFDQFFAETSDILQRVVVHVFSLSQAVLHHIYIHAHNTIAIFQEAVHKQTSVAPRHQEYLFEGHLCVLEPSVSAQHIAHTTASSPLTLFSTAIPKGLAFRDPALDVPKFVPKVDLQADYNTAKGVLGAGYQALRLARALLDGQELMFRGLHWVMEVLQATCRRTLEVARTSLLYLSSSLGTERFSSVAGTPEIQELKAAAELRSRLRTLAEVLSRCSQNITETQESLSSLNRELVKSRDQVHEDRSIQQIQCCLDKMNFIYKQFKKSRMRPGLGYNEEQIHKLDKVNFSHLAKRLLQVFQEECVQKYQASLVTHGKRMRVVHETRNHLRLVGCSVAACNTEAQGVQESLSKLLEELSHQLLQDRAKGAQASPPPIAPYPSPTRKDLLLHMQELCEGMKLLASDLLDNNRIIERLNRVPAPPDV

[9] = target: RAC-beta serine/threonine-protein kinase (Homo sapiens) (UniProt P31751); test: Percentage PKBbeta activity remaining in the presence of 0.01uM inhibitor
RAC-beta serine/threonine-protein kinase (Homo sapiens), sequence (P31751 whole entry): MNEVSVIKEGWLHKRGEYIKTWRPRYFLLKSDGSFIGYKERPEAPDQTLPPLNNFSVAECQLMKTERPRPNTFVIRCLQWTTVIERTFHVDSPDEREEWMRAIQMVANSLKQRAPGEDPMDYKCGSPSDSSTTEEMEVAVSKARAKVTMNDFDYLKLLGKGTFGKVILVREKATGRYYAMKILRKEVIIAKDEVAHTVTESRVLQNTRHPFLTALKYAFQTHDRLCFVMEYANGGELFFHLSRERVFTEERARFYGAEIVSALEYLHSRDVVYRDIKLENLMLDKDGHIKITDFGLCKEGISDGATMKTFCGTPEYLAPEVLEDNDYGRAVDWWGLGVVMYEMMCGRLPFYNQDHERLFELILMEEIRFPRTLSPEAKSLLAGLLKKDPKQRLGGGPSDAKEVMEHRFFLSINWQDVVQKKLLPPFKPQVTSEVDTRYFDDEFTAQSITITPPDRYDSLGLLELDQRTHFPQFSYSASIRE

[10] = target: Proto-oncogene tyrosine-protein kinase Src (Gallus gallus, UniProt P00523); test: Inhibition of Src in the presence of 50uM ATP
[11] = target: Proto-oncogene tyrosine-protein kinase Src (Gallus gallus) (UniProt P00523); test: Percentage Src activity remaining in the presence of 3uM inhibitor; details: filed as antagonist
[12] = species on record: Homo sapiens; test: Percentage PHK activity remaining in the presence of 3uM inhibitor
[13] = target: Serine/threonine-protein kinase PLK1 (Homo sapiens, UniProt P53350); test: Percentage PLK1 activity remaining in the presence of 3uM inhibitor
Serine/threonine-protein kinase PLK1, sequence (P53350 whole entry): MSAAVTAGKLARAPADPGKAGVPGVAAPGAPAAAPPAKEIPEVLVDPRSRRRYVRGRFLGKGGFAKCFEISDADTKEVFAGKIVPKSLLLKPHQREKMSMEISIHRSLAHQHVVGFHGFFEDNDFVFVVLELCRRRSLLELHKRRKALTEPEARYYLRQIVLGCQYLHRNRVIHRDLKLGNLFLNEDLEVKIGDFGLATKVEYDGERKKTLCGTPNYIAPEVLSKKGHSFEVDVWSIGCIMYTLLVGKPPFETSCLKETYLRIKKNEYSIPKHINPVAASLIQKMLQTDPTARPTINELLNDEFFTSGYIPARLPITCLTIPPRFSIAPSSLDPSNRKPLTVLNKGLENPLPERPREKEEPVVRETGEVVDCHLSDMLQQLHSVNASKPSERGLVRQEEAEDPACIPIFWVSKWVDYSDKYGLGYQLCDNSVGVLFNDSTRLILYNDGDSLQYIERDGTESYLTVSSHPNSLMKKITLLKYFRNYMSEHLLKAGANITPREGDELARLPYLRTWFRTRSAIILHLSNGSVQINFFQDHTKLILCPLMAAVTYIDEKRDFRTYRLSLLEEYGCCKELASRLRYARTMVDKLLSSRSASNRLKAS

[14] = target: MAP kinase-activated protein kinase 2 (Homo sapiens) (UniProt P49137); test: Percentage MAPKAPK2 activity remaining in the presence of 3uM inhibitor
MAP kinase-activated protein kinase 2 (Homo sapiens), sequence (P49137 whole entry, looked up): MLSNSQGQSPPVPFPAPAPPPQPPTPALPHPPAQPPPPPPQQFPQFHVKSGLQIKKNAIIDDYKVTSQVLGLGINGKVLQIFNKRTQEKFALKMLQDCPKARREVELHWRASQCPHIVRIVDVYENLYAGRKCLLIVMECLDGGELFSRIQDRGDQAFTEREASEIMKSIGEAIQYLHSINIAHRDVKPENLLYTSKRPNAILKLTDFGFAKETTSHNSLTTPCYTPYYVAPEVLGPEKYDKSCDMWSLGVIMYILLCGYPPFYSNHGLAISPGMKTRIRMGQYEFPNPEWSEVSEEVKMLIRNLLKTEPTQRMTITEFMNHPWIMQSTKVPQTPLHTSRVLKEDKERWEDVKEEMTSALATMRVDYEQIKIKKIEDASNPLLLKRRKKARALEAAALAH

[15] = target: Mitogen-activated protein kinase 8 (Homo sapiens, UniProt P45983); test: Percentage JNK1 activity remaining in the presence of 25uM inhibitor
Mitogen-activated protein kinase 8, sequence (P45983 whole entry): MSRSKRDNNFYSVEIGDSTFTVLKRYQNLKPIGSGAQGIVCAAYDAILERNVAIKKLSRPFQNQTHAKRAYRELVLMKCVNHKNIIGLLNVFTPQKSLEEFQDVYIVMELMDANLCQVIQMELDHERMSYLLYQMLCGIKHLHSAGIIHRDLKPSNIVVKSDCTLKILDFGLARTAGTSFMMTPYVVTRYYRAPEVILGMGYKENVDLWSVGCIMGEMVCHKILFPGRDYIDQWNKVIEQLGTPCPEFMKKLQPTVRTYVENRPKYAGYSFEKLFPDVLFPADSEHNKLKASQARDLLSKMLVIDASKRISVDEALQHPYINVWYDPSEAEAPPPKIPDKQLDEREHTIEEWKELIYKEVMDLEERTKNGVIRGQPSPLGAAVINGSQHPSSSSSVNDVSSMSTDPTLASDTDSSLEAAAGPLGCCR

[16] = target: SRSF protein kinase 1 (Homo sapiens) (UniProt Q96SB4); test: Percentage SRPK1 activity remaining in the presence of 25uM inhibitor
SRSF protein kinase 1 (Homo sapiens), sequence (Q96SB4 whole entry): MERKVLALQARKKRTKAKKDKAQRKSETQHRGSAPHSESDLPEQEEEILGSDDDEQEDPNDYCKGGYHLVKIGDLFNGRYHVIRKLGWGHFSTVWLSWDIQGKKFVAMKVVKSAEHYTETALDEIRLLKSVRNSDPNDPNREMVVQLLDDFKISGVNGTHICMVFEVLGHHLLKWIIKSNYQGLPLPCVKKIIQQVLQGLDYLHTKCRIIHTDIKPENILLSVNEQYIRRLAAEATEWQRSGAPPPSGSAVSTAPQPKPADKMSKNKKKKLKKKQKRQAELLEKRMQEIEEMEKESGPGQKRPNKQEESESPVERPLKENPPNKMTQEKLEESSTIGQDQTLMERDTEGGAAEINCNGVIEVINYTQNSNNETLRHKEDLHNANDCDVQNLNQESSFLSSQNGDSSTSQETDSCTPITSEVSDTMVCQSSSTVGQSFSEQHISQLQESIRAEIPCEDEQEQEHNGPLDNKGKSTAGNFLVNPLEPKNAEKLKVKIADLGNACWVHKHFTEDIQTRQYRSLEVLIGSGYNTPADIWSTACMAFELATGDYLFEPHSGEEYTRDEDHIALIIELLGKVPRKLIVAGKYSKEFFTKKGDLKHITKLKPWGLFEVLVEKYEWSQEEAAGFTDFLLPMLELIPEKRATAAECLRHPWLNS

[17] = target: Mitogen-activated protein kinase 9 (Homo sapiens, UniProt P45984); test: Percentage JNK2 activity remaining in the presence of 25uM inhibitor
Mitogen-activated protein kinase 9, sequence (P45984 whole entry, looked up): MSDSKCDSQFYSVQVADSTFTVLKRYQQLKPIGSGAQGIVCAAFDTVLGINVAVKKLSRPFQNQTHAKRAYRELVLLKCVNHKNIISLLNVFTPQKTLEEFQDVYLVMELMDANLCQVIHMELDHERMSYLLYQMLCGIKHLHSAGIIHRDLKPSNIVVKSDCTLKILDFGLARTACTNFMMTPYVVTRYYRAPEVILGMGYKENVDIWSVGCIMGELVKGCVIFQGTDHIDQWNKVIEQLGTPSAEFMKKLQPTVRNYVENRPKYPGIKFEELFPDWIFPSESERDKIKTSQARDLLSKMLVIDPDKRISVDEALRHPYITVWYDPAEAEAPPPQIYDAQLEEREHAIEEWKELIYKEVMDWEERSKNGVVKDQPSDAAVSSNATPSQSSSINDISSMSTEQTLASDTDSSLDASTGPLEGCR

Ribosomal protein S6 kinase beta-1, sequence (P23443 whole entry, looked up): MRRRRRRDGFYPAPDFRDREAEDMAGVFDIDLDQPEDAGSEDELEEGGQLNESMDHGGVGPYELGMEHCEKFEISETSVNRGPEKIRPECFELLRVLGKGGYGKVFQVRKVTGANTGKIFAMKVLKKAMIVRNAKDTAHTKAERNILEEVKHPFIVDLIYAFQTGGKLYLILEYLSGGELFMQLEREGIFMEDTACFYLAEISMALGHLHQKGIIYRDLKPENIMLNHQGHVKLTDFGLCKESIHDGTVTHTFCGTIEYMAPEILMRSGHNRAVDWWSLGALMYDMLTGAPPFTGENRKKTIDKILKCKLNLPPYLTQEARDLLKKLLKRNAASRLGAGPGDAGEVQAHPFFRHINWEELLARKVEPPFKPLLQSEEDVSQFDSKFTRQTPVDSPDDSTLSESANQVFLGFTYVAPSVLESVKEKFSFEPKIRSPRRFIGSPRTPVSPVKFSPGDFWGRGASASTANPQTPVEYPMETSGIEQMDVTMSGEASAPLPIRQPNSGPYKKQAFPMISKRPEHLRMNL

Compound Cn1cc(C2=C(c3ccc(Cl)cc3Cl)C(=O)NC2=O)c2ccccc21 has an Activity [1] of 87%, an Activity [2] of 86% and an Activity [3] of 89%. It also gave an Activity [4] of 79%, an Activity [5] of 50% and an Activity [6] of 82%. It also gave an Activity [7] of 87%.

Compound O=C(NCCCNc1nc(Nc2cccc(NC(=O)N3CCCC3)c2)ncc1I)c1cccs1 has an Activity [8] of 21%.

With CN[C@@H]1C[C@H]2O[C@@](C)([C@@H]1OC)n1c3ccccc3c3c4c(c5c6ccccc6n2c5c31)C(=O)N[C@H]4O (stereo in doubt) the Activity [9] was 77%.

With Cc1ccc(-c2c(C(=O)CF)n(CCCO)c3ncnc(N)c23)cc1 the IC50 [10] was 560 nM (antagonist), the Activity [11] was 10% and the Activity [12] was 93%. For the same compound, the Activity [13] was 82% and the Activity [14] was 94%.

With NCCNS(=O)(=O)c1ccc(Cl)c2ccncc12 the Activity [15] was 91%, the Activity [16] was 86% and the Activity [17] was 87%.

Reference: ChEMBL document CHEMBL1150976, “The selectivity of protein kinase inhibitors: a further update” (Biochem J, 2007)
